Patent US20030162759A1, “Aldosterone blocker therapy to prevent or treat inflammation-related disorders” (priority 2000, published 2003)
“And” between values parts separate entries of the source, which are not always exact repeats. Identical values can stand only once. “Also recorded” adds a separate entry of the source.

Columns and labels:
Type in all cases: in vivo, rat
cyclooxygenase-2 (COX-2) [1] = assay: Assay A angiotensin II infusion model: cyclooxygenase-2 immunostaining of hearts; settings: angiotensin II infused rats; eplerenone 100 mpk
Protocol: Male Wistar rats (n—50, 10/group; BW=200 g)
2. Angiotensin 11 (25 ng/min, sc via aizet minipump)

Collagen III = assay: Assay C: Collagen III mRNA in left ventricle (TaqMan); settings: for Collagen-III mRNA: individual rats; for Collagen-III mRNA, Mean: group mean
Protocol: (§1) The procedure of Assay B was expanded upon in a further study. […] Myocardial tissue from animals in each treatment group was examined after 7, 14, or 30 days of treatment.
(§2) Potassium chloride supplementation was added to the saline solution in order to prevent the potential hypokalemia associated with aldosterone excess.
(§3) At the time of the surgery, an Alzet 2002 osmotic minipump (Alza Corp., Palo Alto, Calif.) containing either vehicle (9% ethanol/87% propylene glycol/4% dH2O) or 1.0 mg/mL d-aldosterone (Sigma Chemical, St. Louis, Mo.) was inserted subcutaneously at the nape of the neck. Aldosterone was administered at a dose of 0.75 g/hour. […] Animals were sacrificed from each group (n=8-13) after 7, 14, or 30 days of treatment.
Following exsanguination, hearts and kidneys were isolated, removed, rinsed in cold phosphate-buffered saline, and blotted dry. Kidneys were immediately bifurcated through the long axis with a razor blade and placed in 10% neutral buffered formalin (NBF, Richard-Allen Scientific, Kalamazoo, Mich.). For the hearts, the right ventricle (RV) was cut away from the left ventricle (LV), both ventricles were weighed using a Mettler AE163 balance (Mettler-Toledo, Inc., Hightstown, N.J.), and the RV was placed in 10% NBF. A 2 mm coronal slab of the LV apex was removed and frozen with dry ice/isopentane for analysis of gene expression and the remaining portion of the LV was placed in 10% NBF for fixation. Final wet trimming was completed after 3-4 days fixation where a second 2 mm coronal slab was removed for hydroxyproline analysis and a third 2 mm slab was removed from the equatorial region for histology.
(§4) The fluorogenic 5′-nuclease assay (TaqMan PCR) using Applied Biosystems' 7700 Sequence Detection System (Applied Biosystems, Foster City, Calif.) allowed for real time detection/quantitation of a specific gene by monitoring the increase in fluorescence of a gene-specific, dye-labeled oligonucleotide probe. Probes for target and reference genes were labeled at the 5′-end with a 6-carboxyfluorescein (6FAM) reporter dye and at the 3′-end with a 6-carboxy-N,N,N′,N′-tetramethylrhodamine (TAMRA) quencher dye. When the probe was annealed to the target gene, fluorescence of 6FAM was prevented by the close proximity of TAMRA. The exonuclease activity of Taq polymerase released the dyes from the oligonucleotide probe by displacing the probe from the target sequence resulting in fluorescence excitation in direct proportion to the amount of target message present. Data analysis was performed using the Sequence Detection System software from Applied Biosystems.
Primers and probes were designed using Oligo Primer Analysis Software, Version 5.0 (National Biosciences Inc. (NBI)-Wojciech Rychlik, Cascade, Colo.). Primers were synthesized by Life Technologies (Grand Island, N.Y.) and probes were synthesized by Applied Biosystems. Primer/probe sets were designed from known sequences of rat genes to be analyzed. All target gene values were normalized to a reference gene, constitutively expressed cyclophilin. Primer/probe sets sequences can be found in Table 8
RNA was extracted from frozen (−70° C.) left ventricle (LV) tissue (approximately 10-20 mg) using 1.5 mL RNA-STAT 60 according to manufacturer's instructions (Leedo Medical Laboratories, Inc., Houston, Tex.). Briefly, tissues were homogenized using a tissue homogenizer equipped with a 5 mm probe (Ultra-Turrax T8 Homogenizer, IKA Works, Inc. Wilmington, N.C.). Following homogenization, an equal volume of molecular grade chloroform (Sigma Chemical Co., St. Louis, Mo.) was incubated with periodic mixing for 10 min at room temperature. Samples were centrifuged at 12,000 g for 10 min and RNA was precipitated from the top layer by adding an equal volume of molecular grade isopropanol (Sigma Chemical Co.) followed by an overnight incubation at −80° C.

cyclooxygenase-2 (COX-2) [2] = assay: Assay C: COX-2 relative mRNA expression in heart (TaqMan); settings: for COX-2, Mean / COX-2: mRNA; for COX-2, Mean: group mean; for COX-2: individual rats; for COX-2 mRNA expression in myocardium: time course 7, 14, 30 days, eplerenone 100 mg/kg/day
Protocol: as §1, §2, §3, §4
(§5) All primers and probes were designed using Primer Express software supplied with the 7700 Sequence Detection System and synthesized by Applied Biosystems. Standard curves using 5-fold dilutions of total RNA (from 200 ng to 320 pg) were performed to determine the efficiency of each primer/probe set in the TaqMan reaction prior to the analysis of the experimental samples. Primer/probe sets were designed from known sequences of rat genes to be analyzed. All target gene values were normalized to a reference gene, constitutively expressed cyclophilin. Primer/probe set sequences can be found in Table 8.
(§6) RNA was extracted from frozen (−80° C.) rat heart tissue using the Totally RNA Isolation Kit (Ambion, Inc., Austin, Tex.). Tissue was crushed using a stainless steel mortar and pestle, which had been chilled to −80° C. and transferred to a dounce homogenizer (Kontes, Vineland, N.J.) containing 3-10 mL cold denaturation buffer. Tissue was homogenized and transferred to a sterile, 15 mL polypropylene centrifuge tube. An equal volume of phenol:chloroform:isoamyl alcohol (25:24:1) was added, samples were shaken vigorously for 1 min, and incubated on ice for at least 15 min. Samples were centrifuged for 30 min at 10,000 g. The aqueous phase was removed, 1/10 volume of a sodium acetate solution (3.0 M NaOAc pH 4.5) was added, samples were shaken or inverted for 10 seconds, and acid-phenol (premixed with isoamyl alcohol):chloroform (5:1, Ambion, Inc.) was added at an volume equivalent to the starting sample volume. Samples were shaken vigorously for 1 min, followed by a 15-min incubation on ice, and centrifuged for 30 min at 10,000 g. The aqueous phase removed and placed in a clean polypropylene tube. An equal volume of isopropanol (Sigma, St. Louis, Mo.) was added and the samples were mixed and incubated overnight at −20° C. The samples were centrifuged for 30 min at 10,000 g, the supernatant was removed and the RNA pellet was resuspended in DNAse/RNAse-free water. Samples were frozen at −80° C. for at least 2 hours, thawed on wet ice, and diluted for quantitation.

[3] = system: Monocyte Chemoattractant Protein-1 (MCP-1); assay: Assay C: MCP-1 relative mRNA expression in heart (TaqMan); settings: for MCP1, Mean / MCP1: mRNA; for MCP1, Mean: group mean; for MCP1: individual rats; for MCP-1 mRNA expression in myocardium: time course 7, 14, 30 days, eplerenone 100 mg/kg/day
Protocol: as §1, §2, §3, §4, §5, §6

[4] = 7 days of treatment, listed as Aldosterone + salt
[5] = 14 days of treatment, listed as Aldosterone + salt
[6] = 30 days of treatment, listed as Aldosterone + salt
[7] = 7 days of treatment, listed as Eplerenone + aldosterone + salt
[8] = 14 days of treatment, listed as Eplerenone + aldosterone + salt
[9] = 30 days of treatment, listed as Eplerenone + aldosterone + salt

C[C@]12CCC(=O)C=C1CC[C@@H]1[C@@H]2[C@@H](O)C[C@]2(C=O)[C@@H](C(=O)CO)CC[C@@H]12 [aldosterone]
Cyclooxygenase-2 expression in the heart (immunostaining) (cyclooxygenase-2 (COX-2) [1]): restored the presence of cycloxygenase-2 in coronary arteries
Collagen-III mRNA (Collagen III; Table 9.14, 7-day protocol, listed as Aldosterone + salt): 0.65 AU and 1.30 AU
Collagen-III mRNA, Mean (Collagen III; 14 days of treatment): 1.08 AU
Collagen-III mRNA, Mean (Collagen III; 30 days of treatment): 1.39 AU
Collagen-III mRNA (Collagen III; 14 days of treatment, relative to cyclophilin expression, listed as Aldosterone + salt): 0.76 AU and 1.80 AU and 0.44 AU and 1.39 AU and 0.59 AU
Collagen-III mRNA (Collagen III; 30 days of treatment, relative to cyclophilin expression, listed as Aldosterone + salt): 0.75 AU and 0.58 AU and 0.72 AU
COX-2, Mean (cyclooxygenase-2 (COX-2) [2]; 14 days of treatment): 4.34 AU
COX-2, Mean (cyclooxygenase-2 (COX-2) [2]; 30 days of treatment): 4.53 AU
COX-2 (cyclooxygenase-2 (COX-2) [2]; [4]): 2.10 AU and 0.70 AU and 0.82 AU
COX-2 (cyclooxygenase-2 (COX-2) [2]; [5]): 5.80 AU and 4.18 AU
COX-2 (cyclooxygenase-2 (COX-2) [2]; [6]): 3.10 AU and 8.20 AU
COX-2 mRNA expression in myocardium (cyclooxygenase-2 (COX-2) [2]): significantly increased
MCP1, Mean ([3]; 14 days of treatment): 2.76 AU
MCP1, Mean ([3]; 30 days of treatment): 4.54 AU
MCP1 [3, 4]: 2.40 AU
MCP1 [3, 5]: 2.50 AU
MCP1 [3, 6]: 2.30 AU
MCP-1 mRNA expression in myocardium [3]: significantly increased

COC(=O)[C@@H]1CC2=CC(=O)CC[C@]2(C)[C@@]23O[C@@H]2C[C@@]2(C)[C@@H](CC[C@@]24CCC(=O)O4)[C@H]13 [eplerenone, Pregn-4-ene-7,21-dicarboxylic acid, 9,11-epoxy-17-hydroxy-3-oxo-, γ-lactone, methyl ester, (7α, 11α, 17β) -]
Cyclooxygenase-2 expression in the heart (immunostaining) (cyclooxygenase-2 (COX-2) [1]): prevention by eplerenone of induction of COX-2 expression; also recorded: markedly reduced and in most cases completely prevented the expression of cycloxygenase-2
Collagen-III mRNA (Collagen III; 14 days of treatment, relative to cyclophilin expression, listed as Eplerenone + aldosterone + salt): 0.60 AU (2×) and 1.70 AU and 1.81 AU and 1.80 AU
Collagen-III mRNA (Collagen III; 30 days of treatment, relative to cyclophilin expression, listed as Eplerenone + aldosterone + salt): 0.72 AU and 0.89 AU and 0.73 AU
Collagen-III (collagen type III mRNA) (Collagen III; mean ± SEM after 7 days of treatment, relative to cyclophilin expression): 1.09 ± 0.21 AU
Collagen-III (collagen type III mRNA) (Collagen III; mean ± SEM after 30 days of treatment, relative to cyclophilin expression): 1.53 ± 0.23 AU
COX-2, Mean (cyclooxygenase-2 (COX-2) [2]; 7 days of treatment): 1.25 AU
COX-2, Mean (cyclooxygenase-2 (COX-2) [2]; 14 days of treatment): 2.02 AU
COX-2, Mean (cyclooxygenase-2 (COX-2) [2]; 30 days of treatment): 2.28 AU
COX-2 (cyclooxygenase-2 (COX-2) [2]; [7]): 1.19 AU and 0.60 AU (2×) and 0.82 AU and 0.91 AU
COX-2 (cyclooxygenase-2 (COX-2) [2]; [8]): 0.70 AU and 0.99 AU and 0.86 AU
COX-2 (cyclooxygenase-2 (COX-2) [2]; [9]): 0.55 AU and 1.34 AU
COX-2 mRNA expression in myocardium (cyclooxygenase-2 (COX-2) [2]): inhibition of early time-course expression of myocardial COX-2; also recorded: significantly reduced
MCP1, Mean ([3]; 7 days of treatment): 1.56 AU
MCP1, Mean ([3]; 30 days of treatment): 2.29 AU
MCP1 [3, 7]: 1.60 AU and 0.85 AU and 0.83 AU and 0.67 AU
MCP1 [3, 8]: 1.60 AU and 1.20 AU
MCP1 [3, 9]: 1.70 AU and 2.10 AU
MCP-1 mRNA expression in myocardium [3]: significantly reduced; also recorded: inhibition of early time-course expression of myocardial MCP-1
